Positions count from the first letter of the chain named. Like-named read-outs stand apart in the source and are kept apart here.
Tests used:
[1] = target: T1, hAR (Homo sapiens, UniProt P10275); experiment: Competitive binding analysis on baculovirus/Sf9 generated hAR extracts with 3H-DHT tracer; settings: 1 nM 3H-DHT, one hour at 4° C., mean of multiple tests
T1 construct: made in house; host or cells: baculovirus/Sf9 insect cells
T1 sequence (P10275 1-920): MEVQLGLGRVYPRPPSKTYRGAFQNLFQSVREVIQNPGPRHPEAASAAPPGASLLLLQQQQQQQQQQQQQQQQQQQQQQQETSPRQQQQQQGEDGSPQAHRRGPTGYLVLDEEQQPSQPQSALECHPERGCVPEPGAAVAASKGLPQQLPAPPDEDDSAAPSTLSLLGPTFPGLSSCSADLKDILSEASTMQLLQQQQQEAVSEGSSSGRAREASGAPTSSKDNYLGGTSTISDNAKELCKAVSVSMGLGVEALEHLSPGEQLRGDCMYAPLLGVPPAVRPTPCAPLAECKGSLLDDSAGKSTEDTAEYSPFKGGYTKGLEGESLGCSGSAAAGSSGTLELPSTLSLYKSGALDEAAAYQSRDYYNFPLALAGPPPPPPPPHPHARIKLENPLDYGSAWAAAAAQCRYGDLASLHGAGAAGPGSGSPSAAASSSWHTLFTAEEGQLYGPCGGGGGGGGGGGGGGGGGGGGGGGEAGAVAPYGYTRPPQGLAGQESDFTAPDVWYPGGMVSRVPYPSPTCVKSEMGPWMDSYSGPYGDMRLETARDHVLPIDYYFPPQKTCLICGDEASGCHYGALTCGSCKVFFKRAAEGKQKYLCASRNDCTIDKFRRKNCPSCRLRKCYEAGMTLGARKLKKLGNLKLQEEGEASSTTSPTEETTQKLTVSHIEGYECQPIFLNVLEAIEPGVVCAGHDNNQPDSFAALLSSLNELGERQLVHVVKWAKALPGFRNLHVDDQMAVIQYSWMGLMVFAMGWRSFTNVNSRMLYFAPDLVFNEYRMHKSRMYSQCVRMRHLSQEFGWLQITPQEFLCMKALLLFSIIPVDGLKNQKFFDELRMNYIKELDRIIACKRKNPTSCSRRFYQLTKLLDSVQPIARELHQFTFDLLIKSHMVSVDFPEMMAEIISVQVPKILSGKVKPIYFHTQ
Method: The description below describes how the assay was carried out.
Competitive binding analysis was performed on baculovirus/Sf9 generated hAR extracts in the presence or absence of different concentrations of test agent and a fixed concentration of ^3H-dihydrotestosterone (^3H-DHT) as tracer. This binding assay method is a modification of a protocol previously described (Liao S., et. al. J. Steroid Biochem. 20:11-17 1984). Briefly, progressively decreasing concentrations of compounds are incubated in the presence of hAR extract (Chang et al. P.N.A.S. Vol. 89, pp. […], 1992), hydroxylapatite, and 1 nM ^3H-DHT for one hour at 4° C. Subsequently, the binding reactions are washed three times to completely remove excess unbound ^3H-DHT. hAR bound ^3H-DHT levels are determined in the presence of compounds (i.e. competitive binding) and compared to levels bound when no competitor is present (i.e. maximum binding). Compound binding affinity to the hAR is expressed as the concentration of compound at which one half of the maximum binding is inhibited.

[2] = target: T2, androgen receptor (Homo sapiens, UniProt P10275, Q868H); experiment: AR antagonist cell assay (MDA-MB453-MMTV clone 54-19, luciferase reporter); assay type: cell-based; settings: 100 pM DHT, 17 hr, mean of multiple tests
T2 construct: a human breast tumor cell line expressing androgen receptor; endogenous in cells; host or cells: MDA-MB453-MMTV clone 54-19 (only the MMTV-luciferase reporter was transfected)
T2 sequence (P10275 1-920 Q868H): T1 sequence (P10275 1-920) with Q868H
Method: The compounds ability to antagonize the effects of androgen on the androgen receptor were determined in a whole cell assay as described immediately below.
Experimental Procedure for AR Antagonist Cell Assay
This cell line is a stable transfected cell line with MDA-MB453 cell background (a human breast tumor cell line expressing androgen receptor). A MMTV minimal promoter containing ARE was first cloned in front of a firefly luciferase reporter gene. Then the cascade was cloned into transfection vector pUV120puro. Electroporation method was used for transfecting MDA-MB-453 cell. Puromycin resistant stable cell line was selected.
Cell Culture Media and Reagents:
Culture medium: DMEM (high glucose, Gibco cat #: 11960-044), 10% FBS, and 1% L-glutamine
Plating medium: DMEM (phenol red free), 10% charcoal treated HyClone serum, 1% L-glutamine
Assay medium: DMEM (phenol red free), 1% charcoal treated HyClone serum, 1% L-glutamine, and 1% penicillin/streptomycin
3× luciferase buffer: 2% beta-mercaptoethanol, 0.6% ATP, 0.0135% luciferine in cell lysis buffer
• 1. Cells are maintained in culture medium, splitting cells when they reach 80-90% confluence • 2. To test compounds, 10,000 cells/well are plated to opaque 96 cell culture plate in 100 ul/well plating medium, culture for overnight at 37° C. in cell culture incubator • 3. Carefully remove plating medium, then add 80 ul/well of pre-warmed assay medium, add 10 ul/well testing compound (final concentration at) 1000 nM, 200 nM, 40 nM, 8 nM, 1.6 nM, and 0.32 nM), incubate at 37° C. for 30 minutes • 4. Add 10 ul/well freshly prepared DHT (final concentration at 100 pM) to each well, incubate at 37° C. for 17 hr (overnight) • 5.
The results are reported as the mean of multiple tests as described below (the numbers of tests are indicated in the footnote). N.D. denotes that the compound was not tested.

[3] = after 7 years of treatment; cited from earlier work
[4] = MDA-MB453-MMTV clone 54-19 cells, read-out: AR Cell IC50
[5] = hAR extract, read-out: AR Binding IC50

Structure (SMILES) | IC50 ([1]; AR Binding IC50, hAR extract) | IC50 [2, 4] | IC50 [1, 5] | IC50 ([2]; AR Cell IC50, MDA-MB453-MMTV clone 54-19 cells) | Increase in spinal BMD [3]
C[C@H]1CCCC[C@@H]1Oc1ccc(C#N)c(Cl)c1 [Example 41, (1S,2S)-2-Chloro-4-(2-methyl-cyclohexyloxy)-benzonitrile] | 18 nM | 46 nM | – | – | –
N#Cc1ccc(OC2CCCCCC2)c(Cl)c1 [Example 43, 3-Chloro-4-cycloheptyloxy-benzonitrile] | – | 12 nM | 289 nM | – | –
N#Cc1ccc(OC2CCCCC2)cc1Cl [Example 45, 2-Chloro-4-cyclohexyloxy-benzonitrile] | – | 147 nM | 196 nM | – | –
N#Cc1ccc(OC2CCCC2)cc1Cl [Example 46, 2-Chloro-4-cyclopentyloxy-benzonitrile] | 49 nM | 18 nM | – | – | –
CC(C)[C@H]1CC[C@H](C)C[C@@H]1Oc1ccc(C#N)c(Cl)c1 [Example 47, (1S,2R,5S)-2-Chloro-4-(2-isopropyl-5methyl-cyclohexyloxy)-benzonitrile] | – | 750 nM | 107 nM | – | –
C=C(C)[C@H]1CC[C@H](C)[C@@H](Oc2ccc(C#N)c(Cl)c2)C1 [Example 49, (1S,2S,5S)-2-Chloro-4-(5-isopropenyl-2-methyl-cyclohexyloxy)-benzonitrile] | 10 nM | 49 nM | – | – | –
N#Cc1ccc(O[C@@H]2CCCC[C@H]2C#N)cc1Cl [Example 50, (1R,2S)-2-Chloro-4-(2-cyano-cyclohexyloxy)-benzonitrile] | 17 nM | 202 nM | – | – | –
CC1CCCC(Oc2ccc(C#N)c(Cl)c2)C1C (centres unmarked) [Example 52, 2-Chloro-4-(2,3-dimethyl-cyclohexyloxy)-benzonitrile] | 72 nM | 308 nM | – | – | –
CC1CCCC(C)C1Oc1ccc(C#N)c(Cl)c1 (centres unmarked) [Example 53, 2-Chloro-4-(2,6-dimethyl-cyclohexyloxy)-benzonitrile] | 33 nM | > 1000 nM | – | – | –
N#Cc1ccc(O[C@H]2CCCC[C@@H]2c2ccccc2)cc1Cl [Example 55, (1S,2R)-2-Chloro-4-(2-phenyl-cyclohexyloxy)-benzonitrile] | 265 nM | 421 nM | – | – | –
N#Cc1ccc(OC2CC3CCC2C3)cc1Cl (centres unmarked) [Example 62, 4-(Bicyclo[2.2.1]hept-2-yloxy)-2-chloro-benzonitrile] | 46 nM | < 0.32 nM | – | – | –
C[C@H]1CCC[C@@H]1Oc1ccc(C#N)c(Cl)c1 [Example 67, (1S,2S)-2-Chloro-4-(2-methyl-cyclopentyloxy)-benzonitrile] | 44 nM | < 0.32 nM | – | – | –
N#Cc1ccc(OC2CCC2)cc1Cl [Example 68, 2-Chloro-4-cyclobutyloxy-benzonitrile] | – | 103 nM | 297 nM | – | –
C=CCO[C@H]1CCCC[C@@H]1Oc1ccc(C#N)c(C(F)(F)F)c1 [Example 71, (1S,2S)-4-(2-Allyloxy-cyclohexyloxy)-2-trifluoromethyl-benzonitrile] | – | – | 374 nM | 23 nM | –
NCCCC(O)(P(=O)(O)O)P(=O)(O)O [alendronate] | – | – | – | – | ≤ 11%

— patent publication US7670613B2, “Androgen modulators” (Pfizer Inc., priority 2004, dated 2010)
